Results: patent publication US20230125052A1, “RED BLOOD CELL-DERIVED VESICLE” (Imperial College Innovations Limited, priority 2019, published 2023)
Square brackets hold non-standard residues; d marks the D form. Side chains are listed from the residue outwards. Ends that are not written are not given here. maleimidomethyl‑cyclohexane‑carboxamide = linker coupling the Cys to DSPE; DSPE = DSPE lipid anchoring the peptide in the vesicle membrane

Experiments:
[1] = test system: thrombin-induced thrombus in sheep blood; test: In vitro antithrombotic assay (wet thrombus weight); format: cell-based; conditions: equivalent ASA 0.1 mM, 37° C., 30 min
Description: 200 µL of sheep blood was added into a weighted tube. Then, 50 µL specific formulation (PBS, ASA-RBCVs, ASA-RGD-RBCVs, ASA-cRGD-PEG-RBCVs or ASA at an equivalent ASA concentration of 0.1 mM) was added in the tube, and then 10 µL of thrombin in PBS (4 µM) was added in each well and incubated at 37° C. under shaking for 30 min. Finally, the un-clotted blood was removed to obtain the weight of the wet clotted thrombus.

[2] = test system: ADP-induced platelet aggregation; test: In vitro antiplatelet aggregation assay, ADP-induced; format: cell-based, sheep; conditions: Ovis aries, equivalent ASA concentration of 0.1 mM, read-out: Percentage of inhibition of ADP-induced platelet aggregation
Description: (§1) The final platelet count was adjusted to 2 × 10^8 platelets/mL. 150 µL of PRP was seeded in 96-well plates and was incubated with 50 µL of various formulations: ASA-RBCVs, ASA-RGD-RBCVs, ASA-cRGD-PEG-RBCVs or ASA (equivalent ASA concentration of 0.1 mM) in the presence of 10 µL platelet agonist thrombin in PBS (4 µM), arachidonic acid (AA) in PBS (400 µM) or adenosine diphosphate (ADP) in PBS (15 µM). After incubation under shaking at 37° C. for 40 min, the absorbance at 595 nm was measured by a GloMax-Multi Microplate Multimode Reader (Promega, USA). The aggregation percentage was calculated by the equation 2. From the platelet aggregation percentage and comparison to aggregation of PBS without samples, the inhibition percentage was calculated by the equation 3.

[3] = test system: thrombin-induced platelet aggregation; test: In vitro antiplatelet aggregation assay, thrombin-induced; format: cell-based, sheep; conditions: Ovis aries, equivalent ASA concentration of 0.1 mM, read-out: Percentage of inhibition of thrombin-induced platelet aggregation
Description: as §1

[4] = test system: AA-induced platelet aggregation; test: In vitro antiplatelet aggregation assay, arachidonic acid (AA)-induced; format: cell-based, sheep; conditions: Ovis aries, equivalent ASA concentration of 0.1 mM, read-out: Percentage of inhibition of AA-induced platelet aggregation
Description: as §1

[5] = test system: fibrinogen mediated platelet aggregation in platelet-rich plasma (active αIIbβ3); format: cell-based, sheep
Description: Binding affinity of free liner RGD or cRGD peptides to activated platelets can be indicated by a half maximal inhibitory concentration (IC50) value, which is the peptide concentration required to inhibit fibrinogen mediated platelet aggregation in platelet-rich plasma (PRP) by 50%. PRP was incubated with various concentrations of liner RGD or cRGD peptides in the presence of platelet agonist, thrombin (4 µM) for 30 min under stirring. The platelet aggregation percentage was determined with a GloMax-Multi Microplate Multimode Reader (Promega, USA) by measuring the absorbance at 595 nm. The platelet aggregation percentage was calculated by the following equation: […]
where Ao is the initial absorbance at 595 nm, and At is the absorbance at 595 nm after incubation.
The percentage platelet aggregation inhibition was calculated by the following equation: […]
where PAPBS is the platelet aggregation in the PRP control in the presence of thrombin and PBS only (no peptides), and PAs is the platelet aggregation in the PRP sample in the presence of thrombin and peptides.

[6] = target: active GPIIb-IIIa (αIIbβ3) integrin on thrombin-activated platelets (sheep); test: cell-based or functional assay
Sequence of active GPIIb-IIIa (αIIbβ3) integrin on thrombin-activated platelets (sheep) (chain, as listed by the source, chain 1 of 2): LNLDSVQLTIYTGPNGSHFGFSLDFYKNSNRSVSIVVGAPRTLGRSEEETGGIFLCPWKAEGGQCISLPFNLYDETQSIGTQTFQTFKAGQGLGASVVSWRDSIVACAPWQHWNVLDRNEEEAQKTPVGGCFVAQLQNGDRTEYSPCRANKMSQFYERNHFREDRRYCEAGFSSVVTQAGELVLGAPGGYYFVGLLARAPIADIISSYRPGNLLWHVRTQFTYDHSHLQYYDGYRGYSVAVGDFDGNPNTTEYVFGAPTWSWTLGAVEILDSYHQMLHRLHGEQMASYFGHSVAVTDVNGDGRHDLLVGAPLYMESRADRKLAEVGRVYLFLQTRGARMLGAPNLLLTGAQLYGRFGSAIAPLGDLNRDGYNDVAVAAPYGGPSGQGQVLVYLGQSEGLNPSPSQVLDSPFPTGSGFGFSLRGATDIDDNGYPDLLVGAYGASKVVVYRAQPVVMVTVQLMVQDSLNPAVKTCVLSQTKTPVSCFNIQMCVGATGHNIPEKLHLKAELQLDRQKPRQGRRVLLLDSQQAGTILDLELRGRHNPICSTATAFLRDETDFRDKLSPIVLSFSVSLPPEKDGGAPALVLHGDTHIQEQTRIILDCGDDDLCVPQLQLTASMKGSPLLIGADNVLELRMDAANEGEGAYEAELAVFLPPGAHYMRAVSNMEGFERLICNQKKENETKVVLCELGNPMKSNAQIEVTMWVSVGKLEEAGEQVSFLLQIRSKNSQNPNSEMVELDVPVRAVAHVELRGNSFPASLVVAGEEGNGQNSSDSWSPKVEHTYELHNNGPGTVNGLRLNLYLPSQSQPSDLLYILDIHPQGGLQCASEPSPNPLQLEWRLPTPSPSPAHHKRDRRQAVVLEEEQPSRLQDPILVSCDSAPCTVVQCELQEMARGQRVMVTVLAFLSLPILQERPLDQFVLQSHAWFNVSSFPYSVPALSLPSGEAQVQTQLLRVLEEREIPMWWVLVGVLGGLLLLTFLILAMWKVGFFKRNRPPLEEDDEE
Sequence of active GPIIb-IIIa (αIIbβ3) integrin on thrombin-activated platelets (sheep) (chain, as listed by the source, chain 2 of 2): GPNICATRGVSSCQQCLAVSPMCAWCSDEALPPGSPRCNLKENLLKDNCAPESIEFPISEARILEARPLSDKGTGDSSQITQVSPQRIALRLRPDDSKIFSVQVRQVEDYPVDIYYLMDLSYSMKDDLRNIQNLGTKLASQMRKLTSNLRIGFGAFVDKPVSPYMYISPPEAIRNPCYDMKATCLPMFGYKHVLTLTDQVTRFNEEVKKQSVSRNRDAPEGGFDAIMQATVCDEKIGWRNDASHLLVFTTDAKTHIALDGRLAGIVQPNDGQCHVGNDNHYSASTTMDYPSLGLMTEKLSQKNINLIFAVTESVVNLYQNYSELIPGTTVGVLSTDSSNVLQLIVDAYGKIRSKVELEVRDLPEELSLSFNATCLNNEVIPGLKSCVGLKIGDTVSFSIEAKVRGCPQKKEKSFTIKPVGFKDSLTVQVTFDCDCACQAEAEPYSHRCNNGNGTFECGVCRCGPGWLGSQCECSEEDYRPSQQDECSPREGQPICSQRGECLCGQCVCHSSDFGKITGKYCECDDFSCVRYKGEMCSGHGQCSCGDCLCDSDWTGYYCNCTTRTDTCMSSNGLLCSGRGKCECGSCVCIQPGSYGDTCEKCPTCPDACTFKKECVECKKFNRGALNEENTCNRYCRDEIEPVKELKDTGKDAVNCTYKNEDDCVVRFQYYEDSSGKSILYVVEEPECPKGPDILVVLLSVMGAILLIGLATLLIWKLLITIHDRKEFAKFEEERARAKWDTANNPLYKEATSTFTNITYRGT

[7] = test system: fibrin clot; test: Fibrin clot lysis, agar plate assay, in the presence of activated platelets; format: biochemical; conditions: equivalent tPA 1 mg mL^-1, 37° C. overnight, activated platelets present
Description: Fibrin clot lysis by the tPA-loaded vesicles was measured by an agar plate assay. Briefly, 300 mg agar was dissolved in buffer mixture (15 mL of 0.05 M Tris-HCl buffer at pH 7.2 and 5 mL of 0.025 M CaCl2 solution). 50 mg Fibrinogen was dissolved in 10 mL of Tris-HCl buffer (0.05 M, pH 7.2). The agar solution was mixed with the fibrinogen solution, and then 10 µL thrombin (4.0 µM) was added under stirring for 1 min. The resulting mixture was spread carefully on a transparent plastic plate and homogeneous gels were obtained at 37° C. after 3h. […] were created in each plate and 5 µL of plasminogen solution (1 mg mL^-1) was then added into each sample well. PBS buffer, tPA-RBCVs, tPA-RGD-RBCVs, tPA-cRGD-PEG-RBCVs and free tPA (equivalent tPA dose of 1 mg mL^-1) were added into respective sample wells and incubated at 37° C. overnight. The area of the lysed zone in each well was measured to evaluate the degree of fibrin clot lysis.

[8] = test system: Halo blood clots; test: Blood clot lysis in a Halo blood clot model; format: cell-based, sheep; conditions: after 45 min of treatment
Description: Briefly, a clotting mixture (5 mL of buffer containing 66 mM Tris-HCl, 130 mM NaCl and 45 mM CaCl2; 5 µL of 1 µM thrombin, pH 7.4) was freshly prepared. In a 96-well microplate, 5 µL of this clotting mixture was placed on one side of the well bottom, then 15 µL of whole blood was added on the opposite side of the well bottom. Clotting was initiated by mixing the two drops with a pipette tip in a circular motion to form a homogenous halo shape of blood around the edge of the well bottom, leaving the centre area empty. The plate was covered and incubated at 37° C. for 30 min. After clot formation, 80 µL tPA-RBCVs, tPA-RGD-RBCVs, tPA-cRGD-PEG-RBCVs and free tPA (equivalent tPA dose of 1 mg mL^-1) were added simultaneously into respective wells containing halo clots. The dissolution of the halo clots was determined with a plate reader GloMax-Multi Microplate Multimode Reader (Promega, USA) by measuring absorbance at 495 nm caused by RBCs progressively covering the centre of the well after clot degradation at 37° C. […] The percentage of clot dissolution was calculated according to the following equation: […]
where As is the absorbance of well at 495 nm after incubation with samples; An is the absorbance of negative control well at 495 nm; Ap is the absorbance of positive control well at 495 nm.

[9] = in circulation, background; cited from earlier work
[10] = target: T1, active GPIIb-IIIa (αIIbβ3) integrin on thrombin-activated platelets (sheep, UniProt A0ACI6RZ73 32-1033; A0ACI6S117 125-886); test: cell-based or functional assay
T1 sequence (chain, as listed by the source, chain 1 of 2): as the sequence (chain, as listed by the source, chain 1 of 2) above
T1 sequence (chain, as listed by the source, chain 2 of 2): as the sequence (chain, as listed by the source, chain 2 of 2) above

[11] = target: T1, active GPIIb-IIIa (αIIbβ3) integrin on …; test: flow cytometry on thrombin-activated platelets; reference is uncoated RBCVs
Description: (§2) 2 mL platelets (1.0 × 10⁸ mL⁻¹) were seeded in 6-well plates and activated by incubation with 100 µL thrombin (1 U/mL) for at least 20 min. Inactivated platelets or thrombin-activated platelets were incubated with various NBD-labelled RBCV formulations (equivalent NBD-PE of 1.0 × 10⁻⁷ mol). Free vesicles, which were not attached to platelets, were removed by centrifugation. Data for 1.0 × 10⁴ gated events were collected and analysed using a BD Fortessa II flow cytometer.

[12] = target: T1, active GPIIb-IIIa (αIIbβ3) integrin on …; test: MFI of confocal images of thrombin-activated platelets; reference is uncoated RBCVs
[13] = target: T1, active GPIIb-IIIa (αIIbβ3) integrin on …; test: MFI of confocal images of thrombin-activated platelets; reference is uncoated tPA-RBCVs
Description: 2 mL platelets (1.0 × 10⁸ mL⁻¹) were seeded in 6-well plates, with a collagen-coated glass coverslip on the bottom of each well. After 30 min, 100 µL thrombin (1 U/mL) was added onto the platelet-adhered coverslips to ensure activation of platelets at least 20 min. Inactivated platelets or thrombin-activated platelets were incubated with various FITC-labelled tPA-loaded vesicle formulations (equivalent tPA concentration of 0.2 mg mL⁻¹). The platelets were then fixed with 4.0% formaldehyde for 30 min, followed by rinsing with pH 7.4 PBS buffer for three times. Subsequently, the resulting slides were mounted and observed with a Leica SP₅ MP confocal microscope.

[14] = target: T1, active GPIIb-IIIa (αIIbβ3) integrin on …; test: flow cytometry on thrombin-activated platelets; reference is uncoated tPA-RBCVs
Description: as §2, with “FITC-labelled tPA-loaded vesicle” for “NBD-labelled RBCV”, “tPA concentration” for “NBD-PE”, “0.2 mg mL⁻¹).” for “1.0 × 10⁻⁷ mol).”

Question: What does the source list for `CC(=O)Oc1ccccc1C(=O)O` [ASA, acetylsalicylic acid]?
Answer: Thrombus weight [1]: 49.27 ± 10.73 mg; inhibition at 100 µM [2]: 27.6 ± 2.71%; inhibition at 100 µM [3]: 20.5 ± 1.04%; inhibition at 100 µM [4]: 23.8 ± 4.26%

Question: For `CC(C)[C@@H]1NC(=O)[C@@H](Cc2ccccc2)NC(=O)[C@H](CC(=O)O)NC(=O)CNC(=O)[C@H](CCCNC(=N)N)NC1=O` [cRGD, cyclo(Arg-Gly-Asp-d-Phe-Val)], which IC50 [5] is on record?
Answer: 460 µM

Question: With linear RGD peptide (Arg-Gly-Asp), free as the molecule, how does the IC50 (peptide concentration for 50% inhibition of fibrinogen-mediated platelet aggregation in PRP, thrombin 4 µM) [6] read?
Answer: 382 µM

Question: For “tPA: Tissue plasminogen activator (tPA, alteplase), product of Boehringer Ingelheim”, which “Area of fibrin lysis ring” value [7] is on record?
Answer: 1.18 ± 0.17 cm^2

Question: What about the “Blood clot lysis (in words)” value [8] of the same molecule?
Answer: complete blood clot lysis

Question: What about the Half-life [9] of the same molecule?
Answer: 2~6 min

B1: cyclo(Arg-Gly-Asp-d-Phe-Val), free (peptide)
peptide: cyclo(RGD[dF]V)
Question: Which “IC50 (peptide concentration for 50% inhibition of fibrinogen-mediated platelet aggregation in PRP, thrombin 4 µM)” value [10] does the source give for B1 here?
Answer: 460 µM

B2: RGD-coated red blood cell-derived vesicles without drug (RGD-RBCVs) (other)
peptide: C([maleimidomethyl‑cyclohexane‑carboxamide-DSPE])RGD
notes: Vesicle labelled with NBD-PE for flow cytometry and CLSM, or with NBD-PE and Rhod-PE for FRET; also called NBD-labelled RGD-RBCVs
Question: Which “fold increase in fluorescence intensity against NBD-labelled RBCVs” value [11] does the source give for B2 here?
Answer: > 4 fold

Question: And the “fold enhancement in binding affinity (MFI) against RBCVs” value [12]?
Answer: ~4 fold

B3: tPA-loaded, RGD-coated red blood cell-derived vesicles (tPA-RGD-RBCVs) (other)
peptide: C([maleimidomethyl‑cyclohexane‑carboxamide-DSPE])RGD
modifications: also: many copies anchored in red blood cell-derived vesicle membrane, tPA encapsulated
notes: also called FITC-labelled tPA-RGD-RBCVs; fibrinogen-mimicking RBCV
Question: What does the source list for B3?
Answer: fold enhancement in binding affinity (MFI) against tPA-RBCVs [13]: ~4 fold; fold increase in fluorescence intensity against FITC-labelled tPA-RBCVs [14]: > 4 fold
